Where a name gives a salt, the structure may show the parent alone.
Tests used:
D1 receptor = D1 receptor (Rattus norvegicus, UniProt P18901); assay: biochemical; format: binding, rat (Sprague-Dawley); conditions: [3H]-SCH23390 0.2 nM, rat striated membranes, pH 7.4, 37° C., 20 minutes; read-out: Affinity [K1 (nM)] towards D1 receptor
Description: (§1) The tissue were homogenized in 50 mM Tris/HCl buffer at pH 7.4 (1:100 w/v).
(§2) The homogenate was centrifuged and the pellet resuspended, recentrifuged and resuspended again in 50 mM Tris/HCl buffer at pH 7.4 containing 120 mM NaCl, 5 mM KCl, 2 mM CaCl2 and 1 mM MgCl2.
The mixture was incubated with different concentrations of the tested compounds at 37° C. for 20 minutes, filtered under vacuum through Whatman GF/C filters and then washed 4 times with 5 ml of 50 mM Tris/HCl buffer (pH 7.4) cooled with ice.

D2 receptor = D2 receptor (Rattus norvegicus, UniProt P61169); assay: biochemical; format: binding, rat (Sprague-Dawley); conditions: [3H]-domperidone 0.3 nM, rat striated membranes, 0.01% BSA, 37° C., 30 minutes; read-out: Affinity [K1 (nM)] towards D2 receptor
Description: as §1, §2
Furthermore, bovine serum albumine (BSA) (0.01%) was added.
The mixture was incubated at 37° C. for 30 minutes for each concentration of tested compounds.

[1] = system: D1 -like (Rabbit Splenic Artery); assay: D1-like activity in the Rabbit Splenic Artery (RSA) test; conditions: agonist activity at the peak of the effect; contracted with U46619 0.1 μM
Description: Arterial rings were prepared according to Semeraro et al., Naunyn. Schmied. Arch. Pharmacol., 1990, 342, 539.
The arterial preparations were contracted with U46619 (9,11-di-deoxy-11α,9α-epoxy-methanoprostaglandin F2α) at the submaximal concentration 0.1 μM.
(§3) The tested compounds were cumulatively administered.
(§4) Ref. A was used as reference substance.
(§5) Agonist activity evaluated at the peak of the effect and expressed as potency ratio (EC50 of Ref. A/EC50 of tested compound) is reported in table 2.

[2] = biological target: T1, D2 -like (Rabbit Ear Artery) (Oryctolagus cuniculus, UniProt G1T1Q0); assay: D2-like activity in the Rabbit Ear Artery (REA) test; design: species or system New Zealand rabbit; conditions: agonist activity at the peak of the effect; electrically stimulated
T1 construct: the central ear artery was dissected into 3 mm long rings; from tissue; host or cells: rabbit central ear artery rings (male New Zealand rabbits), electrically stimulated
Description: Arterial rings were prepared according to the method described by Steinsland et al., Science, 1978, 443, 199, modified as follows. Male New Zealand rabbits weighing 2.5-3 Kg were sacrificed by intravenous injection of an excess of pentobarbital sodium and exsanguinated. The two ears were taken away and the central ear artery was dissected into 3 mm long rings.
These preparations were set up in a 25 ml organ bath containing Krebs solution (mM/l): NaCl 118, KCl 4.7, CaCl2 2.5, MgSO4 1.2, NaHCO3 25, KH2 PO4 1.2, glucose 11.1, equilibrated with 95% 02 -5% CO2 and maintained at 35°±1° C.
Krebs solution was medicated with EDTA (10 μM) to prevent cathecolamine oxydation, desipramine (0.1 μM) and corticosterone (30 μM), to block neuronal and extraneuronal cathecolamine uptake. The preparations were electrically stimulated (10 Hz, 1 msec, 40-80 mA, 500 msec duration) at 5 minutes intervals.
as §3, §4, §5

T1 sequence (G1T1Q0 1-443): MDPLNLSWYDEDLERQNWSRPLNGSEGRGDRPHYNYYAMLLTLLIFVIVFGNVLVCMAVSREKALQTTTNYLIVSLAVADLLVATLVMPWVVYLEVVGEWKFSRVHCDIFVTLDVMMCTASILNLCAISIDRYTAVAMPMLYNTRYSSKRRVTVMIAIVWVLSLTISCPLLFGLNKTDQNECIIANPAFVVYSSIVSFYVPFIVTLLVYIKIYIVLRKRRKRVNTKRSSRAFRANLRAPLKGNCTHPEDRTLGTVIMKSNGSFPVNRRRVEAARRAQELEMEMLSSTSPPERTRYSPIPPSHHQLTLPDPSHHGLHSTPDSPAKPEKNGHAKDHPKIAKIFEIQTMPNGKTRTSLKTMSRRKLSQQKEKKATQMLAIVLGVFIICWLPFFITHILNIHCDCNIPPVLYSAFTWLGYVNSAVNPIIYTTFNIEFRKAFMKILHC
Sequence of D1 receptor (P18901 whole entry): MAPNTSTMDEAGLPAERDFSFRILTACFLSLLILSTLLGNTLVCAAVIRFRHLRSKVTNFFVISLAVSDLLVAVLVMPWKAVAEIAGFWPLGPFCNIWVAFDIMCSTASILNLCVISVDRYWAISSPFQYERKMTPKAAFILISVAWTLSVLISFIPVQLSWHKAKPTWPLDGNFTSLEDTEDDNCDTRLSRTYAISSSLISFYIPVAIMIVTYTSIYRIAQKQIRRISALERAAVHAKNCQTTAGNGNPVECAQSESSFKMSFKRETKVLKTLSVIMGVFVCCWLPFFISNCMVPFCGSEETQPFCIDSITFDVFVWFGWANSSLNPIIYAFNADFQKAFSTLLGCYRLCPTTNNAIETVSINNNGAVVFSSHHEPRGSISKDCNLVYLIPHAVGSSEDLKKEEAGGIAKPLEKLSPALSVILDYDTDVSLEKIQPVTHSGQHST
Sequence of D2 receptor (P61169 whole entry): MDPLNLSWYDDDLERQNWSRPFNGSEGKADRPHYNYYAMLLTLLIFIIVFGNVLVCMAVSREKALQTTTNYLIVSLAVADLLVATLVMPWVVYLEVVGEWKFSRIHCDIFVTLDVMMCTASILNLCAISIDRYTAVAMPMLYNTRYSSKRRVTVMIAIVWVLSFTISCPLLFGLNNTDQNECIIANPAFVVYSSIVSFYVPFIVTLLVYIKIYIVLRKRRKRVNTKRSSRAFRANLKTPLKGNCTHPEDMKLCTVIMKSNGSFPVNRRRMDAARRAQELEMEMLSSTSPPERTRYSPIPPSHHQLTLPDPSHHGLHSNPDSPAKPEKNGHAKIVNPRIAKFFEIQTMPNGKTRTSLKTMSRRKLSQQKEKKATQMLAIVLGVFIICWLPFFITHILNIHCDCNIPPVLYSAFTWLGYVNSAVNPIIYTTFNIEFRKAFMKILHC

Structure (SMILES)	Ki (D1 receptor) [nM]	Ki (D2 receptor) [nM]	D1 -like (RSA) potency ratio (EC50 of Ref. A/EC50 of tested compound) [1]	D2 -like (REA) potency ratio (EC50 of Ref. A/EC50 of tested compound) [2]
CCCN(CCCCCCNCC1COc2ccccc2O1)[C@H]1CCc2c(ccc(O)c2O)C1 (stereo partly drawn) [Compound 1, (S)-N-propyl-N-[6-[(1,4-benzodioxan-2-yl)methylamino]hexyl]-5,6-dihydroxy-1,2,3,4-tetrahydro-2-naphthylamine dihydrochloride]	49	0.66	–	–
CCCN(CCCCCCNCCc1ccc2c(c1)OCO2)[C@H]1CCc2c(ccc(O)c2O)C1.Cl.Cl [Compound 2, (S)-N-propyl-N-[6-[2-(3,4-methylendioxyphenyl)ethylamino]hexyl]-5,6-dihydroxy-1,2,3,4-tetrahydro-2-naphthylamine dihydrochloride]	25	0.4	10	0.3
CCCN(CCCCCCN1CCN(c2ccccc2OC)CC1)[C@H]1CCc2c(ccc(O)c2O)C1 [Compound 3, (S)-N-propyl-N-[6-[4-(2-methoxyphenyl)piperazin-1-yl]hexyl]-5,6-dihydroxy-1,2,3,4-tetrahydro-2-naphthylamine trihydrochloride]	69	0.31	–	–
CCCN(CCCCCCNCCOc1ccc(S(C)(=O)=O)cc1)[C@H]1CCc2c(ccc(O)c2O)C1.Cl.Cl [Compound 6, (S)-N-propyl-N-[6-[2-(4-methylsulphonylphenoxy)ethylamino]hexyl]-5,6-dihydroxy-1,2,3,4-tetrahydro-2-naphthylamine dihydrochloride]	81	1.3	10	3
CCCN(CCCCCCNCCc1ccc(NS(C)(=O)=O)cc1)[C@H]1CCc2c(ccc(O)c2O)C1.Cl.Cl [Compound 31, (S)-N-propyl-N-[6-[2-(4-methylsulphonylaminophenyl)ethylamino]hexyl]-5,6-dihydroxy-1,2,3,4-tetrahydro-2-naphthylamine dihydrochloride]	–	–	100	5
CCCN(CCCCCCNCCc1ccc(NC(C)=O)cc1)[C@H]1CCc2c(ccc(O)c2O)C1.Cl.Cl [Compound 33, (S)-N-propyl-N-[6-[2-(4-acetylaminophenyl)ethylamino]hexyl]-5,6-dihydroxy-1,2,3,4-tetrahydro-2-naphthylamine dihydrochloride]	–	–	5	5
CCCN(CCCCCCNCCc1ccc(C(=O)OC)cc1)[C@H]1CCc2c(ccc(O)c2O)C1.Cl.Cl [Compound 35, (S)-N-propyl-N-[6-[2-(4-methoxycarbonylphenyl)ethylamino]hexyl]-5,6-dihydroxy-1,2,3,4-tetrahydro-2-naphthylamine dihydrochloride]	–	–	2	0.4
CCCN(CCCCCCNCCc1ccc(CO)cc1)[C@H]1CCc2c(ccc(O)c2O)C1.Cl.Cl [Compound 36, (S)-N-propyl-N-[6-[2-(4-hydroxymethylphenyl)ethylamino]hexyl]-5,6-dihydroxy-1,2,3,4-tetrahydro-2-naphthylamine dihydrochloride]	–	–	4.5	12
CCCN(CCCCCCNCCc1ccc(S(=O)(=O)O)cc1)[C@H]1CCc2c(ccc(O)c2O)C1.Cl.Cl [Compound 39, (S)-N-propyl-N-[6-[2-(4-sulphophenyl)ethylamino]hexyl]-5,6-dihydroxy-1,2,3,4-tetrahydro-2-naphthylamine dihydrochloride]	–	–	2.5	3
CCCN(CCCCCCNCCc1ccc2nc(N)sc2c1)[C@H]1CCc2c(ccc(O)c2O)C1.Cl.Cl.Cl [Compound 40, (S)-N-propyl-N-[6-[2-(2-amino-1,3-benzothiazol-6-yl)ethylamino]hexyl]-5,6-dihydroxy-1,2,3,4-tetrahydro-2-naphthylamine trihydrochloride]	–	–	14	3

The remaining lines, values ahead:

Ki (D1 receptor) [nM]	Ki (D2 receptor) [nM]	D1 -like (RSA) potency ratio (EC50 of Ref. A/EC50 of tested compound) [1]	D2 -like (REA) potency ratio (EC50 of Ref. A/EC50 of tested compound) [2]	Structure (SMILES)
78	1.1	–	–	CCCN(CCCCCCNCCOc1ccccc1[N+](=O)[O-])[C@H]1CCc2c(ccc(O)c2O)C1 [Compound 4, (S)-N-propyl-N-[6-[2-(2-nitrophenoxy)ethylamino]hexyl]-5,6-dihydroxy-1,2,3,4-tetrahydro-2-naphthylamine dihydrochloride]
69	1.5	–	–	CCCN(CCCCCCNCCOc1ccc([N+](=O)[O-])cc1)[C@H]1CCc2c(ccc(O)c2O)C1 [Compound 5, (S)-N-propyl-N-[6-[2-(4-nitrophenoxy)ethylamino]hexyl]-5,6-dihydroxy-1,2,3,4-tetrahydro-2-naphthylamine dihydrochloride]
370	0.25	–	–	CCCN(CCCCCCNC(=O)COc1ccccc1OC)[C@H]1CCc2c(ccc(O)c2O)C1 [Compound 7, (S)-N-propyl-N-[6-[(2-methoxyphenoxy)acetylamino]hexyl]-5,6-dihydroxy-1,2,3,4-tetrahydro-2-naphthylamine hydrochloride]
23	0.1	1	1.7	Br.Br.CCCN(CCCCCCNCCSc1ccc(O)cc1)[C@H]1CCc2c(ccc(O)c2O)C1 [Compound 8, (S)-N-propyl-N-[6-[2-(4-hydroxyphenylthio)ethylamino]hexyl]-5,6-dihydroxy-1,2,3,4-tetrahydro-2-naphthylamine dihydrobromide]
22	0.15	10	5	Br.Br.CCCN(CCCCCCNCCCc1ccc(O)cc1)[C@H]1CCc2c(ccc(O)c2O)C1 [Compound 9, (S)-N-propyl-N-[6-[3-(4-hydroxyphenyl)propylamino]hexyl]-5,6-dihydroxy-1,2,3,4-tetrahydro-2-naphthylamine dihydrobromide]
117	0.6	1.4	2	Br.Br.CCCN(CCCCCCN1CCc2cc(O)c(O)cc2C1)[C@H]1CCc2c(ccc(O)c2O)C1 [Compound 10, (S)-N-propyl-N-[6-(6,7-dihydroxy-1,2,3,4-tetrahydroisoquinolin-2-yl)hexyl]-5,6-dihydroxy-1,2,3,4-tetrahydro-2-naphthylamine dihydrobromide]
–	–	50	1.7	CCCN(CCCCCCNCCc1ccc(O)c(N)c1)[C@H]1CCc2c(ccc(O)c2O)C1.Cl.Cl.Cl [Compound 29, (S)-N-propyl-N-[6-[2-(3-amino-4-hydroxyphenyl)ethylamino]hexyl]-5,6-dihydroxy-1,2,3,4-tetrahydro-2-naphthylamine trihydrochloride]
–	–	33	10	CCCN(CCCCCCNCCc1ccc(NC(N)=O)cc1)[C@H]1CCc2c(ccc(O)c2O)C1.Cl.Cl [Compound 32, (S)-N-propyl-N-[6-[2-(4-aminocarbonylaminophenyl)ethylamino]hexyl]-5,6-dihydroxy-1,2,3,4-tetrahydro-2-naphthylamine dihydrochloride]
–	–	5	5	CCCN(CCCCCCNCCc1ccc(C(N)=O)cc1)[C@H]1CCc2c(ccc(O)c2O)C1.Cl.Cl [Compound 37, (S)-N-propyl-N-[6-[2-(4-carbamoylphenyl)ethylamino]hexyl]-5,6-dihydroxy-1,2,3,4-tetrahydro-2-naphthylamine dihydrochloride]

Source: patent US5674909A, “Derivatives of 2-amino-1,2,3,4-tetrahydronaphthalene active on the cardiovascular system” (Zambon Group, priority 1994, dated 1997)
